Test results as given in paper PMC4942611, “Promising Tools in Prostate Cancer Research: Selective Non-Steroidal Cytochrome P450 17A1 Inhibitors” (Scientific Reports, 2016).

Columns and labels:
CYP21A2 = molecular target: T1, CYP21A2 (Homo sapiens, UniProt P08686); experiment: H295R cell assay, CYP21A2 activity; type: cell-based; details: H295R cells
T1 sequence (P08686 1-495): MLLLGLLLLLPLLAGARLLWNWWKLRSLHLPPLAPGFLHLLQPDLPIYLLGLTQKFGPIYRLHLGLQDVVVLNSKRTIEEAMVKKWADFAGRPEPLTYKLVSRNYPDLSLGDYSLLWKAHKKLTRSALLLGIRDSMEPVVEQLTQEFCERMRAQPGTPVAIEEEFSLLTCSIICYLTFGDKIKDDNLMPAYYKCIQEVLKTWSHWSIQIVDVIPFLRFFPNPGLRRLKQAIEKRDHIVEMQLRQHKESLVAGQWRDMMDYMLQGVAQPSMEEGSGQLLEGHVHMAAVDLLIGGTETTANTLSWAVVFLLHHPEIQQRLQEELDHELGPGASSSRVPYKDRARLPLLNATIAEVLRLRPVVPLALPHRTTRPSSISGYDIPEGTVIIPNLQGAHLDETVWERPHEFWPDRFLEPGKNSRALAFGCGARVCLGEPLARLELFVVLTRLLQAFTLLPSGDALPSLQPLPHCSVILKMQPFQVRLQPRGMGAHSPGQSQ
Method: This cellular assay was also used to evaluate inhibitor selectivity.
The H295R steroid hormone synthesis assay was performed according to the OECD validation guideline. Cells were cultured in DMEM/F12 media supplemented with 1% ITS-premix and 2.5% Nu-serum at 37 °C with a 5% CO2 atmosphere. The cells were only used for experiments between passage […]. During exposure experiments, cells were grown in 24 well plates with a density of 3 × 10^5 cells/mL. […] To avoid interference from low levels of steroid hormones present in the Nu-serum, the exposure experiment was conducted with serum-free media. Each compound was tested at a minimum of seven concentration levels using three or more replicates and the experiment was repeated on two different days (n = 6–15). On each test plate a solvent control (SC) (medium with 0.1% DMSO) was included in triplicate and the maximal concentration of DMSO in the cell medium was 0.1%[49]. After 48 hours of incubation in presence of the test compounds, 950 μL of the medium was carefully removed and internal standards (50 μl of 0.1 μg/μl solution containing deuterated steroid analogues) were added. Samples were stored at −20 °C for later analysis.

human CYP17A1 [1] = molecular target: T2, human CYP17A1 (Homo sapiens, UniProt P05093); experiment: Progesterone 17α-hydroxylase inhibition with purified CYP17A1; type: biochemical; details: for IC50: conversion of PRO to 17-OH-PRO, 10 μM progesterone, mean over 3 measurements ± standard error
T2 construct: bearing a truncation of the N-terminal helix; made in house
T2 sequence (P05093 with tags, fused parts or gaps limits assumed): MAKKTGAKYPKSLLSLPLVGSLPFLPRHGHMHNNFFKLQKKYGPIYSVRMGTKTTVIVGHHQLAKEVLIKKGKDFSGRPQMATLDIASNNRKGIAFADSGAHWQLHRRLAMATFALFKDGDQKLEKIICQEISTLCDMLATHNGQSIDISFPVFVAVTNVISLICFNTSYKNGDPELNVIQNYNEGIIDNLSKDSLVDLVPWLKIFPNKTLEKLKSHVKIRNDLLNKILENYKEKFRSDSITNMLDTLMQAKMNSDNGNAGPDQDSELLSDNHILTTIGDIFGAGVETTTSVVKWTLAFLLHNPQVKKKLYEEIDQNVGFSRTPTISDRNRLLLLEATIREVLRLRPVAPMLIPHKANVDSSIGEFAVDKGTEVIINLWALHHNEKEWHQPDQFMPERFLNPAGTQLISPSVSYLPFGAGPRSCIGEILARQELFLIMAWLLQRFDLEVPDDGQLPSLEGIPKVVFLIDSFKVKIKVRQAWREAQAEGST
Method: (§1) Purified cytochrome P450 17A1 (50 nmol) was incubated with truncated human cytochrome P450 reductase[48] and rat cytochrome b5 in a 1:4:0 or 1:4:4 ratio for hydroxylase and 17,20-lyase reactions, respectively. […] Reactions were initiated upon addition of 25 mM NADPH as the electron source. The hydroxylated product was quantified after HPLC using an UV detector and analyzed as previously published. The 17,20-lyase assay was performed similarly substituting 1.2 μM of 17α-hydroxypregnenolone as the substrate and inhibitor concentrations of 0–500 nM. The dehydroepiandrosterone product was quantitated using a coupled GC/MS method.

human CYP17A1 [2] = molecular target: T2, human CYP17A1; experiment: UV-VIS ligand binding assay (spectral titration) with purified CYP17A1; details: 100 nM purified CYP17A1, mean over 2 measurements ± standard error
Method: Direct coordination of nitrogen-containing heterocycles to the haem iron in the active site of cytochrome P450 enzymes causes a shift of the Soret peak λmax to higher wavelengths. Thus, UV-visible absorbance spectra were recorded as purified CYP17A1 was titrated with the 19 hit compounds. Addition of compounds 1–7 (cf. Fig. 2 and S3) yielded characteristic shifts in λmax from 417 nm to as high as 427 nm, typical of direct coordination to the haem iron. Plots of the changes in absorbance as a function of concentration can be used to evaluate ligand binding affinity. […] Compounds 6 and 7 have substantial intrinsic absorbance overlapping the range of the protein spectral change. Therefore the binding constants could not be determined for these latter two compounds.
Human CYP17A1 bearing a truncation of the N-terminal helix and a 4x histidine tag on the C-terminus was expressed and purified as previously reported.
Ligand binding was measured based on a change in UV-VIS absorbance (ΔA) upon ligand addition. Purified recombinant human cytochrome P450 enzymes (100 nM) were titrated with ligands dissolved in DMSO in 5 cm path length cuvettes. CYP17A1 and CYP21A2 were prepared in 50 mM Tris-HCl, pH 7.4, 500 mM NaCl, 20% (v/v) glycerol, and 100 mM glycine. The buffer used to prepare CYP21A2 also contained 50 mM DTT. CYP3A4 and CYP2D6 were prepared in 50 mM potassium phosphate, pH 7.4, 250 mM NaCl, 20% (v/v) glycerol and 1 mM EDTA. In each case, heteroatom coordination to the haem iron yields an increase in absorbance at ~420 nm and a corresponding decrease at ~390 nm. The apparent binding constant (Kd) and the maximum spectral change (ΔAmax) were calculated from a nonlinear least-squares regression fit to the tight binding equation (2) using GraphPad Prism 6.03.

human CYP17A1 [3] = molecular target: T2, human CYP17A1; experiment: 17α-hydroxypregnenolone 17,20-lyase inhibition with purified CYP17A1; type: biochemical; details: conversion of 17-OH-PRE into DHEA, 1.2 μM 17α-hydroxypregnenolone; mean over 3 measurements ± standard error
Method: as §1

| Compound | Inhibitor concentrations at which CYP21A2 is inhibited (CYP21A2) | IC50 (human CYP17A1 [1]) [nM] | Potency for 17α-hydroxylase inhibition relative to abiraterone (times less potent) (human CYP17A1 [1]; recombinant human CYP17A1) | Kd (human CYP17A1 [2]) [nM] | IC50 (human CYP17A1 [3]) [nM] |
| --- | --- | --- | --- | --- | --- |
| Cc1ccc(-c2csc(-c3cccnc3)n2)c(C)c1 [Compound 1] | greater than 1000 nM | 230 ± 20 | 2–3 times | < 100 | 500 ± 90 |
| C[C@]12CC[C@H](O)CC1=CC[C@@H]1[C@@H]2CC[C@]2(C)C(c3cccnc3)=CC[C@@H]12 [abiraterone, reference compound] | 30 to 3000 nM | 92 ± 4 |  | < 100 | 36 ± 2 |
| CCCn1nnc2cc(-c3cc(-c4ccncc4)c(C#N)c(N)n3)ccc21 [Compound 2] | above 1000 nM | 130 ± 10 |  | < 100 | 110 ± 20 |
